Where two headings read alike, the source gives them in different places.
Tests used:
[1] = molecular target: T1, human CB1 receptor (Homo sapiens, UniProt P21554); assay: biochemical; assay type: binding; conditions: radioligand 0.3 nM [3H]-CP-55940, CHO membranes
T1 construct: expressed in transfected cells; membranes

[2] = molecular target: T2, human CB2 receptor (Homo sapiens, UniProt P34972); assay: [3H]-WIN-55,212-2 competition binding, CHO membranes
T2 construct: expressed in transfected cells; membranes
T2 sequence (P34972 whole entry): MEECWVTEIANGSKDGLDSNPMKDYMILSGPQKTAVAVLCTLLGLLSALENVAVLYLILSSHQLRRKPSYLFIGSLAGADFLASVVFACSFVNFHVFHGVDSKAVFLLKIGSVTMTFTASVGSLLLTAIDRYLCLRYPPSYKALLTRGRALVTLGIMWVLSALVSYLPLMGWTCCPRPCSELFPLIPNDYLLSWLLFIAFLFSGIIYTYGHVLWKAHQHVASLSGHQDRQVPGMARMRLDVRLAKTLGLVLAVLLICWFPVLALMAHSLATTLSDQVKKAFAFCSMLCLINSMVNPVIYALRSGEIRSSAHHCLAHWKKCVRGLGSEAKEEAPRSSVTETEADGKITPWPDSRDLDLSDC

[3] = test system: T3, CB1R; assay: cAMP determination in HEK-293T cells; assay type: cell-based, human
T3 construct: expressed in transfected cells; host or cells: HEK-293T, transient transfection (PEI)
Method: (§1) HEK-293T cells were grown in DMEM medium (Gibco, Paisley, Scotland, United Kingdom) supplemented with 2 mM L-glutamine, 100 U/mL penicillin/streptomycin, MEM Non-Essential Amino Acids Solution (1/100) and 5% (v/v) heat inactivated Foetal Bovine Serum (FBS) (Invitrogen, Paisley, Scotland, United Kingdom). […] Cells were transiently transfected with the PEI (Polyethylenimine, Sigma, St. Louis, MO, United States) method as previously described ([Medrano et al., 2017]; [Navarro et al., 2018b]) and used for functional assays 48 h later (unless otherwise stated).
(§2) Signaling experiments have been performed as previously described ([Navarro et al., 2010], [2016], [2018b]; [Hinz et al., 2018]). Two hours before initiating the experiment, HEK-293T cell-culture medium was replaced by serum-starved DMEM medium. Then, cells were detached, resuspended in growing medium containing 50 μM zardaverine and placed in 384-well microplates (2,500 cells/well). Cells were pretreated (15 min) with CBG -or vehicle- and stimulated with agonists (15 min) before adding 0.5 μM forskolin or vehicle. Readings were performed after 15 min incubation at 25°C. HTRF energy transfer measures were performed using the Lance Ultra cAMP kit (PerkinElmer, Waltham, MA, United States). Fluorescence at 665 nm was analyzed in a PHERAstar Flagship microplate reader equipped with an HTRF optical module (BMG Lab Technologies, Offenburg, Germany).

[4] = test system: T4, CB2R; assay: cAMP determination in HEK-293T cells; assay type: cell-based, human
T4 construct: expressed in transfected cells; host or cells: HEK-293T, transient transfection (PEI)
Method: as §1, §2

[5] = test system: T3, CB1R; assay: ERK1/2 phosphorylation in HEK-293T cells; assay type: cell-based, human
Method: as §1
(§3) To determine ERK1/2 phosphorylation, 50,000 HEK-293T cells/well were plated in transparent Deltalab 96-well microplates and kept at the incubator for 24 h. 2 to 4 h before the experiment, the medium was substituted by serum-starved DMEM medium. Then, cells were pre-treated at 25°C for 10 min with vehicle or CBG in serum-starved DMEM medium and stimulated for an additional 7 min with the specific agonists. Cells were then washed twice with cold PBS before addition of lysis buffer (20 min treatment). 10 μL of each supernatant were placed in white ProxiPlate 384-well microplates and ERK 1/2 phosphorylation was determined using AlphaScreen®SureFire® kit (Perkin Elmer) following the instructions of the supplier and using an EnSpire® Multimode Plate Reader (PerkinElmer, Waltham, MA, United States).

[6] = test system: T4, CB2R; assay: ERK1/2 phosphorylation in HEK-293T cells; assay type: cell-based, human
Method: as §1, §3

[7] = test system: T3, CB1R; assay: β-arrestin 2 recruitment (BRET) in HEK-293T cells; assay type: cell-based, human
Method: as §1
(§4) Arrestin recruitment was determined as previously described ([Medrano et al., 2017]; [Navarro et al., 2018b]). Briefly, BRET experiments were performed in HEK-293T cells 48 h after transfection with the cDNA corresponding to the CB2R-YFP or CB1R-YFP and 1 μg cDNA corresponding to β-arrestin 2-Rluc. Cells (20 μg protein) were distributed in 96-well microplates (Corning 3600, white plates with white bottom) and were incubated with CBG for 15 min and stimulated with the agonist for 10 min prior the addition of 5 μM coelenterazine H (Molecular Probes, Eugene, OR, United States). After 1 min of adding coelenterazine H, BRET between β-arrestin 2-Rluc and receptor-YFP was determined and quantified. The readings were collected using a Mithras LB 940 (Berthold Technologies, Bad Wildbad, Germany) that allows the integration of the signals detected in the short-wavelength filter at 485 nm and the long-wavelength filter at 530 nm. To quantify protein-RLuc expression luminescence readings were also performed 10 min of adding 5 μM coelenterazine H.

[8] = test system: T4, CB2R; assay: β-arrestin 2 recruitment (BRET) in HEK-293T cells; assay type: cell-based, human
Method: as §1, §4

[9] = test system: mouse brain membranes; set-up: method as in Cascio et al., 2010; conditions: 10 μM CBG, mouse brain membranes treated with AEA or CP-55940; ref Cascio et al., 2010; cited from earlier work
[10] = test system: α2-adrenoceptor; set-up: method as in Cascio et al., 2010; conditions: ref Cascio et al., 2010; read-out: EC50 as α2-adrenoceptor agonist; cited from earlier work
[11] = test system: AEA cell uptake; set-up: method as in De Petrocellis et al., 2011; conditions: ref De Petrocellis et al., 2011; read-out: Ki, inhibitor of AEA cell uptake; cited from earlier work
[12] = test system: PPARγ transcriptional activity; set-up: method as in Granja et al., 2012; Nadal et al., 2017; conditions: high concentrations, 10–25 μM range; ref Granja et al., 2012; Nadal et al., 2017; cited from earlier work
[13] = CBG alone, 1 nM to 10 μM, CB1R-expressing cells
[14] = 100 nM or 1 μM CBG pretreatment, 100 nM AEA or JWH133, CB2R
[15] = CBG alone, 1 nM to 10 μM, CB2R-expressing cells
[16] = 100 nM or 1 μM CBG, 100 nM AEA or ACEA, CB1R

T1 sequence (P21554 whole entry): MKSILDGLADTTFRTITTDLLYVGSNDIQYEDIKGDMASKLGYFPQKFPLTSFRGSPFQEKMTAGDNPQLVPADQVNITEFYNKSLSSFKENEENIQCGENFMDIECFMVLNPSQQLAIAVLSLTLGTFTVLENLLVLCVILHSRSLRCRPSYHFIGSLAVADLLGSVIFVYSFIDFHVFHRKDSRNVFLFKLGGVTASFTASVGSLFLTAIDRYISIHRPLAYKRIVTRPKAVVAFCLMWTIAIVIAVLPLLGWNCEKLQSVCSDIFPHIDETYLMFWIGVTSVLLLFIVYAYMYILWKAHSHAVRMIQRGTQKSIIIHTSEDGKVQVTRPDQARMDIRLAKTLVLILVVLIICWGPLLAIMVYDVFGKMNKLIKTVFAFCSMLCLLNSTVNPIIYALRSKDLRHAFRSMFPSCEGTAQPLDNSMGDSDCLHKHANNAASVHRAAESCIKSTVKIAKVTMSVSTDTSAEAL

CCCCCc1cc(O)c(C/C=C(\C)CCC=C(C)C)c(O)c1 [CBG, cannabigerol]
Ki [1]: 1050 nM | Ki ([2]; radioligand 3 nM [3H]-WIN-55,212-2, CHO membranes, read-out: CB2 – Ki): 2660 nM | Ki ([2]; radioligand [3H]-WIN-55,212-2, read-out: Ki, competition of [3H]-WIN-55,212-2 binding to CB2R): 2700 nM | Effect on AEA and ACEA induced effects on forskolin-induced cAMP ([3]; 100 nM or 1 μM CBG pretreatment, 100 nM AEA or ACEA, CB1R): significant decrease | Effect on forskolin induced cAMP levels [3, 13]: small decrease | Effect on AEA and JWH133 effects on forskolin-induced cAMP levels [4, 14]: reduced the effects of AEA and JWH133 | Effect on forskolin-induced cAMP levels [4, 15]: small and similar to that exerted in CB1R-expressing cells | Effect on agonist-induced MAPK phosphorylation [5, 16]: unable to modify | Effect on MAPK phosphorylation [5, 13]: no significant action | Effect on AEA and JWH133 effects on ERK1/2 phosphorylation [6, 14]: reduced the effects of AEA and JWH133 | Activation of the MAP kinase pathway [6, 15]: notable | Effect on agonist-induced β-arrestin recruitment [7, 16]: unable to modify | β-arrestin recruitment [7, 13]: small increase | Effect on β-arrestin recruitment induced by agonists ([8]; 100 nM or 1 μM CBG, 100 nM AEA or JWH133, CB2R): did not affect | β-arrestin recruitment [8, 15]: noteworthy | Effect on [35S]GTPγS binding [9]: antagonized | EC50 [10]: 0.2 nM | Ki [11]: 11.3 µM | Effect on PPARγ transcriptional activity [12]: may enhance the PPARγ transcriptional activity
